Drawing on patent publication US8163781B2, “Bi-aryl aminotetralines” (Hoffman-La Roche Inc., priority 2008, dated 2012), this text covers IC50 for six compounds.

SMILES strings stand for the structures.

In the experiment the target is T1, human CRTH2 (Homo sapiens, UniProt Q9Y5Y4).
T1 construct: expressed in transfected cells
T1 sequence (Q9Y5Y4 1-395): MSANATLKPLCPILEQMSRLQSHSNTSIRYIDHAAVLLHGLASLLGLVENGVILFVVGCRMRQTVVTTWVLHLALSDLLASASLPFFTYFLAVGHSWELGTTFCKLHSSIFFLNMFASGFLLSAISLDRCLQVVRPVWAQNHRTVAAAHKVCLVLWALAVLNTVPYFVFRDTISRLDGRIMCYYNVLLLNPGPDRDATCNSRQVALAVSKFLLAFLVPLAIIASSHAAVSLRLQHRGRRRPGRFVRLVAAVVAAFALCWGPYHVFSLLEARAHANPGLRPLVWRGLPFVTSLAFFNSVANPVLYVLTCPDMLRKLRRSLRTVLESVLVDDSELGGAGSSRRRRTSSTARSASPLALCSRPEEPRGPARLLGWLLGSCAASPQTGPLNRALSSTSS
The experiment is described as follows: Human CRTH2 Receptor Binding Assay. The following applies: whole cell binding, CHO-K1 cells expressing human CRTH2, 20 nM [3H]ramatroban as competing radioligand. An excerpt: A whole cell receptor binding assay using [^3H]ramatroban as the competing radioactive ligand was employed to evaluate the compound binding activity to human CRTH2. The radioactive ligand [^3H]ramatroban was synthesized according to Sugimoto et. al. (Eur. J. Pharmacol. 524, 30-37, 2005) to a specific activity of 42 Ci/mmol.
A cell line stably expressing human CRTH2 was established by transfecting CHO-K1 cells with two mammalian expression vectors that harbored human CRTH2 and G-alpha16 cDNAs, respectively, using FuGene® 6 transfection reagent (from Roche). Stable clones expressing CRTH2 were selected by staining each clone with BM16 (BD Pharmingen™ from BD Biosciences, a division of Becton, Dickinson and Company), which is a rat monoclonal antibody to human CRTH2. The cells were maintained as monolayer cultures in Ham's F-12 medium containing 10% fetal bovine serum, 100 units/mL penicillin, 100 μg/mL streptomycin, 2 mM glutamine, 0.5 mg/mL G418 (geneticin) for CRTH2, and 0.2 mg/mL hygromycin-B (for G-alpha 16). For whole cell receptor binding assay, the monolayer cells were rinsed once with PBS (phosphate buffered saline), dissociated using ethylenediaminetetraacetate (Versene™ EDTA from the Lonza Inc.), and suspended in PBS containing 10 mM MgCl2 and 0.06% BSA (bovine serum albumin) at 1.5×10^6 cells/mL.
The binding reactions (0.2 mL) were performed in 96-well plates at room temperature in PBS containing 1.5×10^5 cells, 10 mM MgCl2, 0.06% BSA, 20 nM [^3H]ramatroban, and test compound at various concentrations. After 1 hour of binding reactions, the cells were harvested on GF™/B filter microplates (microtiter plates with embedded glass fiber from PerkinElmer, Inc.) and washed 5 times with PBS using a Filtermate™ Harvester (a cell harvester that harvests and washes cells from microplates from PerkinElmer, Inc.). The radioactivities bound to the cells were determined using a microplate scintillation counter (TopCount® NXT, from PerkinElmer, Inc.) after adding 50 μL of Microscint™ 20 scintillation fluid (from PerkinElmer, Inc.) to each well of the filter plates. The radioactivity from non-specific binding was determined by replacing compound with 10 μM of 15(R)-15-methyl PGD2 (from Cayman Chemical Company) in the reaction mixtures. The radioactivity bound to the cells in the absence of compound (total binding) was determined by replacing compound with 0.25% of DMSO (dimethyl sulfoxide) in the reaction mixture. Specific binding data were obtained by subtracting the radioactivity of non-specific binding from each binding data.
The IC50 value is defined as the concentration of the tested compound that is required for 50% inhibition of total specific binding. In order to calculate the IC50 value, the percent inhibition data were determined for 7 concentrations for each compound. The percent inhibition for a compound at each concentration was calculated according to the following formula, [1-(specific binding in the presence of compound)/(total specific binding)]×100. The IC50 value was then obtained by fitting the percent inhibition data to a sigmoidal dose-response (4 parameter logistic) model in the XLfit® software Excel add-in program [from ID Business Solutions Ltd., model 205, where F(x)=(A+(B−A)/(1+((C/x)^D)))].
The IC50 is the concentration that inhibits the measured activity by half. The low end stands for inhibition by little substance, the high end for a need for much substance. `Cc1ccc(-c2ccc(S(=O)(=O)N[C@@H]3CCCc4c(OCC(=O)O)cccc43)cc2C)cc1` [Example 3-34, [(R)-5-(2,4′-Dimethyl-biphenyl-4-sulfonylamino)-5,6,7,8-tetrahydro-naphthalen-1-yloxy]-acetic acid] yielded an IC50 of 0.157 µM.

The compound `O=C(O)COc1cccc2c1CCCC2NS(=O)(=O)c1ccc(Oc2ccccc2)nc1` (stereo not drawn) [Example 1-6, [5-(6-Phenoxy-pyridine-3-sulfonylamino)-5,6,7,8-tetrahydro-naphthalen-1-yloxy]-acetic acid] returned an IC50 of 0.188 µM.

The compound `CC(C)c1cccc(Oc2ncc(S(=O)(=O)NC3CCCc4c(OCC(=O)O)cccc43)cc2Br)c1` (stereo not drawn) [Example 2-9, {5-[5-Bromo-6-(3-isopropyl-phenoxy)-pyridine-3-sulfonylamino]-5,6,7,8-tetrahydro-naphthalen-1-yloxy}-acetic acid] registered a 50% inhibitory concentration (IC50) of 0.0212 µM. Compared with the last compound, the IC50 is about 8.9-fold lower.

Compound `O=C(O)COc1cccc2c1CCC[C@H]2NS(=O)(=O)c1ccc(Oc2ccc(Cl)cc2)c(Cl)c1` [Example 2-2, {(R)-5-[3-Chloro-4-(4-chloro-phenoxy)-benzenesulfonylamino]-5,6,7,8-tetrahydro-naphthalen-1-yloxy}-acetic acid] yielded an IC50 of 0.0102 µM.

Compound `COc1ccc(-c2ccc(S(=O)(=O)N[C@@H]3CCCc4c(OCC(=O)O)cccc43)cc2)cc1` [Example 1-8, [(R)-5-(4′-Methoxy-biphenyl-4-sulfonylamino)-5,6,7,8-tetrahydro-naphthalen-1-yloxy]-acetic acid] displayed an IC50 of 0.0659 µM.

As to `CN([C@@H]1CCCc2c(OCC(=O)O)cccc21)S(=O)(=O)c1ccc(Oc2ccc(Cl)cc2)c(Cl)c1` [Example 6-1, ((R)-5-{[3-Chloro-4-(4-chloro-phenoxy)-benzenesulfonyl]-methyl-amino}-5,6,7,8-tetrahydro-naphthalen-1-yloxy)-acetic acid], the IC50 was 0.147 µM.
